Reference: PubChem BioAssay (NCI)
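These data come from cells grown in 96-well plates and exposed to compound for 48 hours at five concentrations. At the GI50, growth is halved. Definition used: TGI = concentration required for complete inhibition of growth.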

Experiments:
Test in all cases: growth of human tumour cells (NCI), 48 h
[1] = tested on: SF-295 CNS
[2] = tested on: EKVX NSCLC
[3] = tested on: HCC-2998 colon
[4] = tested on: SK-MEL-28 melanoma
[5] = tested on: HL-60(TB) leukemia
[6] = tested on: OVCAR-5 ovarian
[7] = tested on: MALME-3M melanoma
[8] = tested on: DU-145 prostate
[9] = tested on: OVCAR-3 ovarian
[10] = tested on: MDA-MB-231 breast
[11] = tested on: NCI/ADR-RES ovarian
[12] = tested on: U251 CNS
[13] = tested on: ACHN renal
[14] = tested on: 786-0 renal
[15] = tested on: SK-MEL-5 melanoma
[16] = tested on: CAKI-1 renal
[17] = tested on: COLO 205 colon
[18] = tested on: A498 renal
[19] = tested on: MCF7 breast
[20] = tested on: SN12C renal
[21] = tested on: SW-620 colon
[22] = tested on: HOP-92 NSCLC
[23] = tested on: SNB-75 CNS
[24] = tested on: RPMI-8226 leukemia
[25] = tested on: UACC-257 melanoma
[26] = tested on: UO-31 renal
[27] = tested on: NCI-H23 lung
[28] = tested on: SF-539 CNS
[29] = tested on: T-47D breast
[30] = tested on: SK-MEL-2 melanoma
[31] = tested on: NCI-H226 lung
[32] = tested on: MOLT-4 leukemia
[33] = tested on: NCI-H522 lung
[34] = tested on: LOX IMVI melanoma
[35] = tested on: HOP-62 NSCLC
[36] = tested on: K-562 leukemia
[37] = tested on: SK-OV-3 ovarian
[38] = tested on: RXF 393 renal
[39] = tested on: UACC-62 melanoma
[40] = tested on: MDA-MB-435
[41] = tested on: M14 melanoma
[42] = tested on: OVCAR-8 ovarian
[43] = tested on: HCT-15 colon
[44] = tested on: OVCAR-4 ovarian
[45] = tested on: SF-268 CNS
[46] = tested on: IGROV1 ovarian
[47] = tested on: TK-10 renal
[48] = tested on: KM12 colon
[49] = tested on: NCI-H460 lung
[50] = tested on: SR leukemia
[51] = tested on: HCT-116 colon
[52] = tested on: PC-3 prostate
[53] = tested on: CCRF-CEM leukemia
[54] = tested on: BT-549 breast
[55] = tested on: A549 NSCLC

SMILES: Fc1cccc(-c2[nH]nc3nc(Nc4cccnc4)sc23)c1
- GI50 [1]: 3.82 µM
- TGI [1]: > 100 µM
- GI50 [2]: 6.75 µM
- TGI [2]: > 100 µM
- GI50 [3]: > 100 µM
- TGI [3]: > 100 µM
- GI50 [4]: 17.5 µM
- TGI [4]: > 100 µM
- GI50 [5]: 1240 nM
- TGI [5]: > 100 µM
- GI50 [6]: > 100 µM
- TGI [6]: > 100 µM
- GI50 [7]: 39.8 µM
- TGI [7]: > 100 µM
- GI50 [8]: 4.71 µM
- TGI [8]: 24.8 µM
- GI50 [9]: 1680 nM
- TGI [9]: 13.5 µM
- GI50 [10]: 35.2 µM
- TGI [10]: > 100 µM
- GI50 [11]: 1830 nM
- TGI [11]: > 100 µM
- GI50 [12]: 1010 nM
- TGI [12]: > 100 µM
- GI50 [13]: 56.6 µM
- TGI [13]: > 100 µM
- GI50 [14]: > 100 µM
- TGI [14]: > 100 µM
- GI50 [15]: 593 nM
- TGI [15]: 23.9 µM
- GI50 [16]: 3.72 µM
- TGI [16]: > 100 µM
- GI50 [17]: 3.3 µM
- TGI [17]: > 100 µM
- GI50 [18]: > 100 µM
- TGI [18]: > 100 µM
- GI50 [19]: 708 nM
- TGI [19]: > 100 µM
- GI50 [20]: > 100 µM
- TGI [20]: > 100 µM
- GI50 [21]: 35.6 µM
- TGI [21]: > 100 µM
- GI50 [22]: > 100 µM
- TGI [22]: > 100 µM
- GI50 [23]: > 100 µM
- TGI [23]: > 100 µM
- GI50 [24]: 5.79 µM
- TGI [24]: > 100 µM
- GI50 [25]: > 100 µM
- TGI [25]: > 100 µM
- GI50 [26]: 95.1 µM
- TGI [26]: > 100 µM
- GI50 [27]: 23 µM
- TGI [27]: > 100 µM
- GI50 [28]: 3.02 µM
- TGI [28]: > 100 µM
- GI50 [29]: 8.69 µM
- TGI [29]: > 100 µM
- GI50 [30]: 42.2 µM
- TGI [30]: > 100 µM
- GI50 [31]: > 100 µM
- TGI [31]: > 100 µM
- GI50 [32]: 9.13 µM
- TGI [32]: > 100 µM
- GI50 [33]: 13.7 µM
- TGI [33]: > 100 µM
- GI50 [34]: 3.68 µM
- TGI [34]: > 100 µM
- GI50 [35]: > 100 µM
- TGI [35]: > 100 µM
- GI50 [36]: 421 nM
- TGI [36]: > 100 µM
- GI50 [37]: > 100 µM
- TGI [37]: > 100 µM
- GI50 [38]: 3.1 µM
- TGI [38]: > 100 µM
- GI50 [39]: > 100 µM
- TGI [39]: > 100 µM
- GI50 [40]: 280 nM
- TGI [40]: > 100 µM
- GI50 [41]: 11.3 µM
- TGI [41]: > 100 µM
- GI50 [42]: 15.7 µM
- TGI [42]: > 100 µM
- GI50 [43]: 948 nM
- TGI [43]: > 100 µM
- GI50 [44]: 16.1 µM
- TGI [44]: > 100 µM
- GI50 [45]: > 100 µM
- TGI [45]: > 100 µM
- GI50 [46]: 11.7 µM
- TGI [46]: > 100 µM
- GI50 [47]: 31.2 µM
- TGI [47]: > 100 µM
- GI50 [48]: 631 nM
- TGI [48]: > 100 µM
- GI50 [49]: 2380 nM
- TGI [49]: > 100 µM
- GI50 [50]: 979 nM
- TGI [50]: > 100 µM
- GI50 [51]: 595 nM
- TGI [51]: 51.1 µM
- GI50 [52]: 6.34 µM
- TGI [52]: > 100 µM
- GI50 [53]: 3.5 µM
- TGI [53]: > 100 µM
- GI50 [54]: 14.9 µM
- TGI [54]: 47 µM
- GI50 [55]: 4.18 µM
- TGI [55]: > 100 µM
